Laboratory results as given in US9988341B2, “Bacterial topoisomerase inhibitors and use thereof” (THE FLORIDA INTERNATIONAL UNIVERSITY BOARD OF TRUSTEES, priority 2016, dated 2018).
Converted amounts (≈) assume the structure as drawn.

Assays:
[1] = tested on: Mtb-lux; type: cell-based, M. tuberculosis
[2] = tested on: M. smegmatis; test: M. smegmatis loss of viability (viable colony counts); type: cell-based
[3] = tested on: M. smegmatis mc2 155; test: M. smegmatis growth inhibition (MIC); type: cell-based; settings: Mycolicibacterium smegmatis, MC2155
[4] = target: M. tuberculosis topoisomerase I (Mycobacterium tuberculosis, UniProt P9WG49); test: biochemical; settings: Table 3; read-out: MtbTopI IC50
[5] = tested on: Mtb CDC1551 Mtb::lux; test: microbe, parasite or virus in culture; type: cell-based, M. tuberculosis; settings: Mycobacterium tuberculosis, 120 h; 50% reduction in luminescence signal compared to controls; 5 days
[6] = target: E. coli topoisomerase I (Escherichia coli, UniProt P06612); test: Bacterial topoisomerase I relaxation activity inhibition assay (EcTopI); type: biochemical
Description: The relaxation activity of bacterial topoisomerase I was assayed in a buffer containing 10 mM Tris-HCl, pH 8.0, 50 mM NaCl, 0.1 mg/mL gelatin, and 0.5 mM MgCl2. One microliter of the compounds dissolved in DMF (dimethylformamide) or solvent alone was mixed with 10 μl of the reaction buffer containing 10 ng of enzyme before the addition of 9 μl of reaction buffer containing 160 ng of supercoiled pBAD/Thio plasmid DNA purified by cesium chloride gradient as substrate. Following incubation at 37° C. for 30 min, the reactions were terminated by the addition of 4 μl of 50% glycerol, 50 mM EDTA, and 0.5% (v/v) bromophenol blue, and analyzed by agarose gel electrophoresis. The gels were stained in ethidium bromide and photographed under UV light.

[7] = tested on: J774 macrophages; test: Resazurin-based cytotoxicity assay; settings: 50% loss of viability in J774 macrophage cell line after 24 hr exposure
Description: (§1) J774 macrophages were cultured in Dulbeco's minimal essential medium (DMEM) supplemented with 10% heat inactivated fetal bovine serum. One day prior to performing the assay 2.5×10^4 cells were seeded on black 384 well. Compounds and controls (0.4% DMSO and 2% Triton X final concentrations) were added 6 hr after seeding. Survival was determined after 24 hr by resazurin reduction measurement. Addition of 0.02 mg/mL resazurin was followed by 4 hours incubation at 37° C. and subsequent fluorescence reading (530 nm/590 nm) using a Synergy H4 (BioTek) plate reader. Data are presented as a percent viability compared to the vehicle (0.4% DMSO) control with 100% being noncytotoxic.

[8] = Resazurin-based cytotoxicity assay; settings: mouse, J774 macrophages, 50% loss of viability in J774 macrophage cell line after 24 hr exposure
Description: as §1

[9] = tested on: Mtb::lux; type: cell-based, M. tuberculosis; settings: at higher concentrations; data not shown
[10] = tested on: M. smegmatis mc2 155/pTA-noI; test: microbe, parasite or virus in culture; type: cell-based; settings: Mycolicibacterium smegmatis, MC2155, read-out: MIC, M. smegmatis mc2 155/pTA-noI
[11] = target: MtbTopI (Mycobacterium tuberculosis, UniProt P9WG49); test: Anisotropy assay of DNA binding by MtbTopI; settings: compounds at their IC50 concentrations
[12] = tested on: HEK; test: HEK toxicity
[13] = target: T1, Human topoisomerase I (Homo sapiens, UniProt P11387); test: Human topoisomerase I relaxation inhibition assay; type: biochemical
T1 construct: purchased TopoGen
T1 sequence (P11387 1-765): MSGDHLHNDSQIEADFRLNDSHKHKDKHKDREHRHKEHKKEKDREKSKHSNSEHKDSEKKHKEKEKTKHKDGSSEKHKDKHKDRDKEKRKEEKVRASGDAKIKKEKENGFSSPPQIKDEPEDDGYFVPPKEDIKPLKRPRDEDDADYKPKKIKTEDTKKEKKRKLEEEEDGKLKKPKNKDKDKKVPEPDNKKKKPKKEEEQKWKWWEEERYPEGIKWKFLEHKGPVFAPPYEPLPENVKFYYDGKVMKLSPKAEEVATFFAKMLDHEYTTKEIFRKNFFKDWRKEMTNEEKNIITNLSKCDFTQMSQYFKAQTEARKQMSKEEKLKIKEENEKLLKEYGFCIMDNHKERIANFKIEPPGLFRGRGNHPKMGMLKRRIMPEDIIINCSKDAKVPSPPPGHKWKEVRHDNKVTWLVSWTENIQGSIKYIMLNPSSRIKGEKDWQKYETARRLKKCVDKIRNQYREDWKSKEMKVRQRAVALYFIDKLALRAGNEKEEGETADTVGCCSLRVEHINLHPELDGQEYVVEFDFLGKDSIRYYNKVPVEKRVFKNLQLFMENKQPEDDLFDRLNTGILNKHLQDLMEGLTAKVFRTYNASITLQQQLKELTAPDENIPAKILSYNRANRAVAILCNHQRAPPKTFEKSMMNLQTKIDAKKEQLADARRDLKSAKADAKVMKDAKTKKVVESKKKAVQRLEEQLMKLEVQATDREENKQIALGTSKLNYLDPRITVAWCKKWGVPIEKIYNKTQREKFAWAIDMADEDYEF
Description: Human topoisomerase I (obtained from TopoGen) relaxation assays were carried out with 0.5 U of enzyme in reaction buffer supplied by the manufacturer. The enzyme was mixed with the indicated concentration of compound dissolved before 160 ng of supercoiled pBAD/Thio plasmid DNA was added in the same buffer, for a final volume of 20 μL. Following incubation at 37° C. for 30 minutes, the reactions were terminated with a buffer containing 5% SDS, 0.25% bromophenol blue, and 25% glycerol, and analyzed by agarose gel electrophoresis.

[14] = target: T2, E. coli DNA gyrase (Escherichia coli, UniProt P0AES4+P0AES6); test: DNA gyrase supercoiling inhibition assay; type: biochemical
T2 construct: purchased New England BioLabs
Description: DNA gyrase (obtained from New England BioLabs) supercoiling assays were carried out by mixing the compounds with 2 U of the enzyme in reaction buffer supplied by the manufacturer, followed by the addition of 300 ng of relaxed covalently closed circular DNA was for a final reaction volume of 20 μL. The samples were incubated at 37° C. for 30 minutes before being terminated by the addition of a buffer containing 5% SDS, 0.25% bromophenol blue, and 25% glycerol. The reactions were then analyzed by agarose gel electrophoresis.

[15] = target: T3, Human Topoisomerase IIα (Homo sapiens, UniProt P11388); test: Human topoisomerase IIα decatenation inhibition assay; type: biochemical
T3 construct: purchased TopoGen
Description: Human Topoisomerase IIα (obtained from TopoGen) assays were carried out by adding the compounds to 180 ng of kinetoplast DNA (kDNA) in the buffer supplied by the manufacturer before the addition of 2 U of the enzyme. The samples were incubated for 15 minutes at 37° C. before the addition of 4 μl of stop buffer containing 5% sarkosyl, 0.0025% bromophenol blue, and 25% glycerol. The reactions were then analyzed by electrophoresis in 1% agarose gels containing 0.5 μg ml^−1 ethidium bromide before being photographed under UV light.

M. tuberculosis topoisomerase I, sequence (P9WG49 whole entry): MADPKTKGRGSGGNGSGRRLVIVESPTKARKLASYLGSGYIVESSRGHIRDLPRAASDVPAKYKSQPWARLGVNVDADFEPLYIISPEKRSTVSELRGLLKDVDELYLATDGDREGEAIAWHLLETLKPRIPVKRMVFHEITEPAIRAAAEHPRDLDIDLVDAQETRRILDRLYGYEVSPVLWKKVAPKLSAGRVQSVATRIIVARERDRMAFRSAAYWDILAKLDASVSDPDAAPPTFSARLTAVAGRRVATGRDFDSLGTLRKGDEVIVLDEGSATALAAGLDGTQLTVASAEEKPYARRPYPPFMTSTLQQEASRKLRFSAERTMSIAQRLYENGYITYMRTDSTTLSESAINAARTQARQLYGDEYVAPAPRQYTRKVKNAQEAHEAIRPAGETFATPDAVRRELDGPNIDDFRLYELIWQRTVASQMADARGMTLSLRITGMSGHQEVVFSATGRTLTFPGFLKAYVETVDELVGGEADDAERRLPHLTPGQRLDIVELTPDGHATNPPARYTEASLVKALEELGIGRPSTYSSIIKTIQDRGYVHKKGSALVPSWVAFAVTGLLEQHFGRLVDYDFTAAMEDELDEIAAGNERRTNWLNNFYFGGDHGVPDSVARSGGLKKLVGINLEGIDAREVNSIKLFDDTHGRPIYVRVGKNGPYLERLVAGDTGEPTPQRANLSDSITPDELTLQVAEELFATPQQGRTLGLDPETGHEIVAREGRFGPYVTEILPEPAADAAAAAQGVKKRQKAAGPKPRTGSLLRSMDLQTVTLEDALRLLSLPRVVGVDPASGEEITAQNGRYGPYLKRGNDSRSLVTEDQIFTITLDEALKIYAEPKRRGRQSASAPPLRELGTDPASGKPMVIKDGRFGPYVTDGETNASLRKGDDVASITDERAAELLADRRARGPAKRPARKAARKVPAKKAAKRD
E. coli topoisomerase I, sequence (P06612 whole entry): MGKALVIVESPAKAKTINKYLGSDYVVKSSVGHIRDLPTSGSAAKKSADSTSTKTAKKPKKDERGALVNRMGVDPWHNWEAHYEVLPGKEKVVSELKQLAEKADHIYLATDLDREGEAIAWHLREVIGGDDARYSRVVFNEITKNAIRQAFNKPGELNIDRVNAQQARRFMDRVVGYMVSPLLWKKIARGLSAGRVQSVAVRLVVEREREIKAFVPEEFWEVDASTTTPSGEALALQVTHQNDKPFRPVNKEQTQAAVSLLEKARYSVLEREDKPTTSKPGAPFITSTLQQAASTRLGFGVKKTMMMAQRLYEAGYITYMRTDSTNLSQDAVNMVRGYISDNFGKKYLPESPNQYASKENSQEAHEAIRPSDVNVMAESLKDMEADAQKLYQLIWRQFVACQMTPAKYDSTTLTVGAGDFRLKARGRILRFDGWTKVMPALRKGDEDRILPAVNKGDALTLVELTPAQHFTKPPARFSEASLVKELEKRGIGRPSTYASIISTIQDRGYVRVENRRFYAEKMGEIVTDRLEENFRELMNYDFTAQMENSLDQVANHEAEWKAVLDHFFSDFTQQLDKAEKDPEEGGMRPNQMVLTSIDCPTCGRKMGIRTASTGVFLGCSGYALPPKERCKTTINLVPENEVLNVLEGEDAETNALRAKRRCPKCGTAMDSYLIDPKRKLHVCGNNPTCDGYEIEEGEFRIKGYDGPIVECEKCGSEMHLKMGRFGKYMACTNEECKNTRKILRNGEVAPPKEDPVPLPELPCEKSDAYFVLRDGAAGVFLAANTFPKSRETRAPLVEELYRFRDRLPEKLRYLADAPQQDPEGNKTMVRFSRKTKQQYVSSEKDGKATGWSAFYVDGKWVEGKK
T2 sequence (P0AES4 whole entry, one chain of several): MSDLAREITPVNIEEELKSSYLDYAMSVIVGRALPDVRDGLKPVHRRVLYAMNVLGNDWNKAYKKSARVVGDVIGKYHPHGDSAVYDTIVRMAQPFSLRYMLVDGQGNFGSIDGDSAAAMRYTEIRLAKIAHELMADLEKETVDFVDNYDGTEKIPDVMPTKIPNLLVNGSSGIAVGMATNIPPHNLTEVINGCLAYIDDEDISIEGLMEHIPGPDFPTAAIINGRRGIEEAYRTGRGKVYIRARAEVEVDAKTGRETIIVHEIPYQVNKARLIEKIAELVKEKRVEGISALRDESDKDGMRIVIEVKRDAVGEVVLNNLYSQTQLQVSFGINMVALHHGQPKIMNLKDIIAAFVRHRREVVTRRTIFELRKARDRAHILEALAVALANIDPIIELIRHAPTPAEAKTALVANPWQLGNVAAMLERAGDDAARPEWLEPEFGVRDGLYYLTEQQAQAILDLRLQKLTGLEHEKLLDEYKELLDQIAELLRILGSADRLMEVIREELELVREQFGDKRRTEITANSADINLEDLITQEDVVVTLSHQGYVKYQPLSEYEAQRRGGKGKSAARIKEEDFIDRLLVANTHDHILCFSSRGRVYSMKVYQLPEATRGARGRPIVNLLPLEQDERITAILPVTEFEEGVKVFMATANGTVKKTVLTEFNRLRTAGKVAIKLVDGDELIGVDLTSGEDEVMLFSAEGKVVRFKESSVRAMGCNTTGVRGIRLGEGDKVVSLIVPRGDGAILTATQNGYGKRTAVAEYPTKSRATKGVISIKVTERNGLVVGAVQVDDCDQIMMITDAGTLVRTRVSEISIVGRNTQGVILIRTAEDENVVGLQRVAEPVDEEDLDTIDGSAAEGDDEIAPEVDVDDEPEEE
MtbTopI, sequence (P9WG49 whole entry): as the sequence (P9WG49 whole entry) above

| Compound | Percent Mtb-lux killing 5 μg/mL [1] [%] | Time course of loss of viable colony counts, control cloning vector [2] | MIC [3] [µM] | IC50 [4] [µM] | IC50 [5] [µM] | IC50 [6] [µM] | CC50 [7] [µM] | CC50 at 24 h [8] [µM] | Reduction of Mtb CFU [9] [log] | MIC [10] [µM] | Effect on binding of MtbTopI to oligonucleotide substrate [11] | Percent HEK toxicity 6.25 μg/mL [12] [%] | IC50 [13] [µM] | IC50 [14] [µM] | IC50 [15] [µM] |
| --- | --- | --- | --- | --- | --- | --- | --- | --- | --- | --- | --- | --- | --- | --- | --- |
| CCCC[C@@H](CN[C@H](CN)CCCCNC)NCc1cccc2ccccc12 [Compound 2471-12, (S)—N6-methyl-N2-((S)-2-(naphthalen-1-ylmethylamino)hexyl)hexane-1,2,6-triamine] | 70.9 | rapid killing | 25 (≈ 9.62 µg/mL) | 7.5 | 6.8 | 7.5 | 104 | ~100 | 1 | 12.5 (≈ 4.81 µg/mL) | did not inhibit | 15.2 | – | – | – |
| CCCC[C@@H](CN[C@H](CN)CCN)NCc1cccc2ccccc12 [Compound 2471-24, (S)—N2-((S)-2-(naphthalen-1-ylmethylamino)hexyl)butane-1,2,4-triamine] | 64.3 | – | 50 (≈ 17.1 µg/mL) | 7.5 | 8.4 | 10 | 101 | ~100 | 1 | 25 (≈ 8.56 µg/mL) | – | 5.4 | > 160 | > 160 | – |
| CCCC[C@@H](CN[C@@H](CN)CCCCNC)NCc1cccc2ccccc12 [Compound 2471-36] | 99.2 | – | 25 (≈ 9.62 µg/mL) | 15 | 3.3 | 20 | 36.5 | ~40 | – | – | – | 15.3 | > 160 | > 160 | > 160 |
